From patent US20230067910A1, “NOVEL COMPOUNDS FOR THE DIAGNOSIS, TREATMENT AND PREVENTION OF DISEASES ASSOCIATED WITH THE AGGREGATION OF ALPHA-SYNUCLEIN” (MODAG GMBH, priority 2019, published 2023) come the findings set out here.

Where two headings read alike, the source gives them in different places.

In test [1] the test system is H4 cells overexpressing full-length alpha-synuclein. As to the kind of experiment: Cellular model of aggregated alpha-synuclein-dependent toxicity, full-length alpha-synuclein H4 cells. The test is classed as cell-based. The settings on record: 10 μM compound, 100 μM FeCl3, 0.75% DMSO, 48 h; for inhibition at 10 µM: read-out: Change in fraction of condensed nuclei (rel. to DMSO control) [%]. The method, then:
(§1) To identify potential therapeutically useful effects, compounds were tested in two cellular models of aggregated alpha-synuclein-dependent toxicity in H4 cells. These cellular models allow for the inducible overexpression of alpha-synuclein hemi-Venus fusion constructs (V1S+SV2) or full-length alpha-synuclein (the model is described in detail in: Bartels M, Weckbecker D, Kuhn P H, Ryazanov S, Leonov A, Griesinger C, Lichtenthaler S F, Bötzel K, Giese A: Iron-mediated aggregation and toxicity in a novel neuronal cell culture model with inducible alpha-synuclein expression, Sci. Rep. 2019 Jun. 24; 9(1):9100). Moreover, addition of DMSO and FeCl3 promotes the aggregation of alpha-synuclein which is associated with an increase in cytotoxicity. The cell culture assay uses these effects by determining the change in the number of cells and the change in the percentage of condensed nuclei, which is indicative of apoptosis, in order to obtain information on which compounds show the most promising effects and thus might be therapeutically useful.
(§2) In these experiments, cells were incubated with 100 μM FeCl3 and 0.75% DMSO in the presence of 10 μM anle138c as a positive control, compounds 1 to 19 (10 μM), or DMSO as a negative control. After 48 h, the cells were imaged with an OPERA high-throughput imaging system and analyzed using Acapella software (Perkin Elmer). […] A reduction in the fraction of condensed nuclei (in the absence of a strong reduction in cell number) is indicative of a beneficial therapeutic effect.

Test [2] deals with H4 cells overexpressing alpha-synuclein hemi-Venus fusion constructs (V1S+SV2). As to the kind of experiment: Cellular model of aggregated alpha-synuclein-dependent toxicity, V1S+SV2 H4 cells. The test is classed as cell-based. The settings on record: 10 μM compound, 100 μM FeCl3, 0.75% DMSO, 48 h; for inhibition at 10 µM: read-out: Change in fraction of condensed nuclei (rel. to DMSO control) [%]. The method, then: as §1, §2

For test [3], the target named is T1, alpha-synuclein (sonicated fibrils) (Homo sapiens, UniProt P37840).
T1 construct: made in house; host or cells: E. coli
Kind of test: Modified competition binding assay, protocol 3b, reference ligand [3H]-compound 2. The settings on record: Table 5, reference ligand [3H]-compound 2 (1 nM). The method, then:
(§3) Alpha-synuclein and tau46 were purified from E. coli according to established protocols (Nuscher B, et al., J. Biol. Chem., 2004; 279(21):21966-75), Aβ1-42 was obtained from rPeptide, Watkinsville, Ga., USA. Fibrils were prepared by aggregation of recombinant protein via constant agitation. In detail, 70 μM of alpha-synuclein mixed with 100 mM NaCl in 50 mM Tris, pH 7.0+0.02% NaN3 were incubated at 1,400 rpm, 37° C. for 96 h. 10 μM of tau46 were incubated with 0.03 mg/ml heparin in 50 mM Tris, pH=7.0 at 1,000 rpm, 37° C. for 72 h. Aβ1-42 was solved in 20 mM NaPi, pH=8.0+0.2 mM EDTA+0.02% NaN3 (Deeg A A, et al., Biochim. Biophys. Acta, 2015; 1850(9): 1884-90; Goedert M, et al. Nature, 1996; 383(6600): 550-3).
For competition binding experiments, a fixed concentration of recombinant αSYN fibrils (sonicated, 15 nM/well) was incubated with 1 nM [^3H]-compound 1 or [3H]-compound 2 and decreasing concentrations of a serial dilution of non-labeled competitor (serial dilution 1:4 or 1:3.5 or 1:3 providing the concentration ranges of non-labeled competitor 1 μM-[…] 1 μM-4 nM or 1 μM-[…], respectively) in 30 mM Tris-HCl, 10% ethanol, 0.05% Tween20, pH 7.4 in a total volume of 200 μL/well. Plates were incubated for 4.5 hours at RT covered by removable sealing tape (PerkinElmer, Waltham, Mass., USA).
Filtration and readout were performed as described for saturation binding assays. [^3H]-labeled ligand binding [in CMP] was plotted against increasing competitor concentrations and data points were fitted using non-linear regression analysis to calculate the IC50 and Ki values (GraphPad Software, Inc., Version 7.03, La Jolla (Calif.), USA). In the competition binding assay with sonicated recombinant αSYN fibrils, the calculation of Ki values was done based on KD values of 0.6 nM and 0.2 nM for compound 1 and compound 2, respectively.
(§4) The fibril competition assay provides Ki values. Ki is a quantitative measure that represents the concentration of the non-radioactive tested compound (competitor ligand) required to replace 50% of a reference compound, in this case [H]-compound 1 (1 nM) or [H]-compound 2 (1 nM), which is bound to the target structures (1 nM), in our case recombinant alpha-synuclein and tau46 fibrils. This assay is suitable for a screening of non-radioactive ligands.

The target of test [4] is T2, alpha-synuclein (fibrils) (Homo sapiens, UniProt P37840).
T2 construct: made in house; host or cells: E. coli
Kind of test: Competition binding assay, protocol 3a, reference ligand [3H]-compound 1, alpha-synuclein fibrils. The settings on record: reference ligand [3H]-compound 1 (1 nM). The method, then: as §3
A fixed concentration of sonicated human recombinant αSYN (200 nM/well) or tau46 (208 nM/well) fibrils diluted in phosphate buffered saline (PBS) were incubated in low binding plates (96 well micro test plate, Ratiolab GmbH, Dreieich, Germany) together with 1 nM [^3H]-compound 1 and 1:4 serial dilutions of the cold compound of interest starting from 1 μM diluted in 50 mM Tris-base, 10% EtOH, 0.05% Tween20, pH 7.4. For the calculation of Ki values the KD value of compound 1 toward sonicated human recombinant αSYN fibrils was set to 3 nM.
Assay plates were incubated under agitation at 37° C. for 2 h covered by plastic foil (Resealable tape, PerkinElmer, Waltham, Mass., USA). Prior to harvesting, a filter (Printed filtermat B, PerkinElmer, Waltham, Mass., USA) was incubated with 5 mg/mL polyethylenimine (PEI, Poly(ethyleneimine) solution, Sigma Aldrich Chemie GmbH, Taufkirchen, Germany) at 4° C. for 30 min. After incubation, bound and free ligands were separated by vacuum filtration using a harvester (Filtermate harvester, PerkinElmer, Waltham, Mass., USA). The filter was washed three times with buffer cooled to 4° C. and subsequently dried in the microwave for 2 min at medium power. The filter was sealed in a plastic bag (Sample bag for MicroBeta®, PerkinElmer, Waltham, Mass., USA) together with added scintillator (BETAPLATE SCINT, PerkinElmer, Waltham, Mass., USA). Accumulation of tritium was counted in a liquid scintillation counter (Wallac MicroBeta® TriLux, 1450 LSC & Luminescence Counter, PerkinElmer, Waltham, Mass., USA) immediately. Radioactivity was plotted against the increasing tritium-labeled compound or cold compound concentrations. Data points were fitted using nonlinear regression analysis in GraphPad Prism (GraphPad Software, Inc., Version 7.03, La Jolla, Calif., USA).
as §4

The target in test [5] is T1, alpha-synuclein (sonicated fibrils). Kind of test: Modified competition binding assay, protocol 3b, reference ligand [3H]-compound 1. The settings on record: reference ligand [3H]-compound 1 (1 nM). The method, then:
Fibrils were prepared by aggregation of recombinant protein via constant agitation. In detail, 70 μM of alpha-synuclein mixed with 100 mM NaCl in 50 mM Tris, pH 7.0+0.02% NaN3 were incubated at 1,400 rpm, 37° C. for 96 h. 10 μM of tau46 were incubated with 0.03 mg/ml heparin in 50 mM Tris, pH=7.0 at 1,000 rpm, 37° C. for 72 h.
Plates were incubated for 4.5 hours at RT covered by removable sealing tape (PerkinElmer, Waltham, Mass., USA).
Filtration and readout were performed as described for saturation binding assays.
The fibril competition assay provides Ki values. […] This assay is suitable for a screening of non-radioactive ligands.

Setting [6] is: Experiment A, read-out: Ki (nM) alpha-synuclein (fibrils).
Setting [7] is: Experiment B, read-out: Ki (nM) alpha-synuclein (sonicated fibrils).
The mark [8] stands for this setting: Table 4b, read-out: Ki (nM) alpha-synuclein (sonicated fibrils).
Where [9] appears, read: Table 6 comparison series, read-out: Ki (nM), sonicated alpha-synuclein fibrils.

As usually defined, the Ki is the equilibrium dissociation constant of an inhibitor or competing ligand from its target. Regarding `Clc1cc(-c2cc(-c3ccc4c(c3)OCO4)n[nH]2)ccn1` [Compound 14, 4-[3-(1,3-benzodioxol-5-yl)-1H-pyrazol-5-yl]-2-chloropyridine], in test [1], the “Change in cell number (rel. to DMSO control) [%]” value (shortened to “Change in cell number … [%]”) is on record as −32.0% and the inhibition at 10 µM came to 47.3%. Besides, in test [2], the “Change in cell number … [%]” value is −21.9% and the inhibition at 10 µM is -61%. In test [3], the Ki amounted to 1.3 nM.

For `CN(C)c1ncc(-c2cc(-c3cccc(Br)c3)[nH]n2)cn1` [Compound 5, 5-[5-(3-bromophenyl)-1H-pyrazol-3-yl]-N,N-dimethylpyrimidin-2-amine], the “Change in cell number … [%]” value in test [1] is −14.6%; in test [2], −12.4%. The results for the inhibition at 10 µM in test [1] and in test [2] were 34.2% and 27.3%, respectively. Besides, the inhibition constant Ki in test [3] was 13 nM; in test [4] (setting [6]), 27 nM; in test [4] (setting [7]), above 60 nM.

Take `Fc1cccc(-c2cc(-c3ccc4c(c3)OCO4)n[nH]2)n1` [Compound 11, 2-[3-(1,3-benzodioxol-5-yl)-1H-pyrazol-5-yl]-6-fluoropyridine]: in test [1], the “Change in cell number … [%]” value is reported as −20.0% and the inhibition at 10 µM is -13.7%. Besides, in test [2], the “Change in cell number … [%]” value was −17.4% and the inhibition at 10 µM was -123%. Also, in test [3], the inhibition constant (Ki) was found to be 7.4 nM.

As for `CNc1ccc(-c2cc(-c3cncc(Br)c3)[nH]n2)cc1` [Compound 56, 4-[5-(5-bromopyridin-3-yl)-1H-pyrazol-3-yl]-N-methylaniline], the inhibition constant (Ki) amounted to 2.6 nM in test [5] (setting [8]) and 3.3 nM in test [3].

Take `CNc1ccc(-c2cc(-c3cc(Br)ccn3)[nH]n2)cc1` [Compound 57, 4-[5-(4-bromopyridin-2-yl)-1H-pyrazol-3-yl]-N-methylaniline]: the Ki in test [5] (setting [8]) came out at 3.3 nM; in test [3], 2.8 nM.

Consider `CN(C)c1ncc(-c2cc(-c3ccnc(F)c3)[nH]n2)cn1` [Compound 8, 5-[5-(2-fluoropyridin-4-yl)-1H-pyrazol-3-yl]-N,N-dimethylpyrimidin-2-amine], for which the “Change in cell number … [%]” value in test [1] is recorded as −5.7%; in test [2] it was −4.5%. The inhibition at 10 µM was -10.7% in test [1] and -14.2% in test [2]. Further, the figures for the Ki in test [3] and in test [4] (setting [6]) were 9.9 nM and 43 nM, respectively.

`Cn1nc(-c2ccnc(Br)c2)cc1-c1ccc2c(c1)OCO2` [Compound 19, 4-[5-(1,3-benzodioxol-5-yl)-1-methyl-1H-pyrazol-3-yl]-2-bromopyridine]: in test [1], the “Change in cell number … [%]” value is given as −30.3% and the inhibition at 10 µM worked out at 13.2%. In addition, in test [2], the “Change in cell number … [%]” value is −5.7% and the inhibition at 10 µM is -3.2%.

With `Nc1ccc(-c2cc(-c3ccnc(Br)c3)[nH]n2)cc1` [Compound 7, 4-[5-(2-bromopyridin-4-yl)-1H-pyrazol-3-yl]aniline], in test [1], the “Change in cell number … [%]” value is recorded as −37.8% and the inhibition at 10 µM was 62.5%. Further, in test [2], the “Change in cell number … [%]” value was −30.8% and the inhibition at 10 µM worked out at 46.1%.

As to `CN(C)c1ccc(-c2cc(-c3cccc(Br)c3)[nH]n2)cc1` [Compound 65, reference compound], the inhibition constant Ki in test [5] (setting [9]) came to 1.9 nM.

Regarding `CNc1ccc(-c2cc(-c3cccc(Br)c3)[nH]n2)cc1` [Compound 64, reference compound], in test [5] (setting [9]), the Ki came to 3.4 nM.

In the case of `CNc1ccc(-c2cc(-c3cccc(Br)n3)[nH]n2)cc1` [Compound 58, 4-[5-(6-bromopyridin-2-yl)-1H-pyrazol-3-yl]-N-methylaniline], the inhibition constant Ki in test [5] (setting [8]) stood at 5.1 nM; in test [3], 5 nM.

With `Brc1cccc(-c2cc(-c3cc4c(cn3)OCO4)n[nH]2)c1` [Compound 20, 6-[3-(3-bromophenyl)-1H-pyrazol-5-yl]-1,3-dioxolo[4,5-c]pyridine], the inhibition constant (Ki) stood at 3.1 nM in test [5] (setting [8]) and 5.5 nM in test [3].

Take `CN(C)c1ncc(-c2cc(-c3ccnc(Br)c3)[nH]n2)cn1` [Compound 6, 5-[5-(2-bromopyridin-4-yl)-1H-pyrazol-3-yl]-N,N-dimethylpyrimidin-2-amine]: the “Change in cell number … [%]” value in test [1] is listed as −31.0%; in test [2], −34.0%. Moreover, the inhibition at 10 µM in test [1] is -5.4%; in test [2] it was -53.6%. Further, the values for the inhibition constant (Ki) in test [3], in test [4] (setting [6]) and in test [4] (setting [7]) were 8.9 nM, 24 nM and above 300 nM, respectively.

Turning to `Fc1cncc(-c2cc(-c3ccc4c(c3)OCO4)n[nH]2)c1` [Compound 13, 3-[3-(1,3-benzodioxol-5-yl)-1H-pyrazol-5-yl]-5-fluoropyridine], in test [1], the “Change in cell number … [%]” value is on record as −18.1% and the inhibition at 10 µM is 55.5%. In addition, in test [2], the “Change in cell number … [%]” value was −6.1% and the inhibition at 10 µM was -46%. The inhibition constant (Ki) in test [3] stood at 189 nM.
